In patent US10150793B2, “Antagonists of CB1 receptor” (INSERM (Institut National de la Santé et de la Recherche …, priority 2011, dated 2018):

Columns and labels:
[1] = test system: AMPA receptors; assay: AMPAR-mediated mEPSC in nucleus accumbens principal neurons; type: cell-based, mouse; settings: pregnenolone 100 nM treated slices
[2] = Diet induced obesity, body weight and body composition; type: in vivo, C57BL/6J mice
Experimental: 2-months old male C57BL/6J mice were ad libitum fed a 60% high-fat diet (HFD; Catalog #D12492, Research Diets, New Brunswick, N.J.) for 8 weeks and subsequently treated either with pegnenolone or vehicle. Homogeneous distribution of the animals in the 3 treatment groups was guaranteed by matching their body weight, fat mass and fasting glucose levels before the start of the pharmacological treatments.
Fat mass and lean mass were assessed in vivo using an EchoMRI analyzer (EchoMedical Systems, Houston, Tex.) before the mice were placed on the HFD, as well as immediately before and at the end of the chronic treatment with pregnegnolone or its vehicle.
In this example the inventors analyzed the ability of pregnenolone to inhibit the effects of CB1 activation in the context of obesity. The effects of pregnenolone on metabolic disorders were studied using the model of diet induced obesity (DIO) in mice. In this procedure animals are maintained on a high fat diet (60% of fat) which progressively induce obesity. After eight weeks on this diet which already induced overweight and excessive fat accumulation in these animals the treatment with pregnenolone was started for thirty days (once a day 2 mg/kg or 5 mg/kg, n=8).

[3] = test system: NMDA receptors; assay: Whole cell currents induced by NMDA in nucleus accumbens principal neurons; type: cell-based, mouse; settings: −30 mV
Experimental: NMDAR-mediated currents: Changes in holding currents induced by NMDA were measured in cells voltage clamped at −30 mV, to relieve NMDAR from the voltage-dependent magnesium block. AMPAR and GABA-A receptors were blocked with DNQX 20 μM and picrotoxine 50 μM, respectably.
To quantify NMDA receptors-mediated currents we used a different strategy. Because of its slow kinetics and voltage dependence, the isolation of NMDAR-mediated mEPSC is not as reliable as for AMPAR-mediated currents. Thus, we decided to record whole cell currents in response exogenously applied NMDA. In NAc PN voltage-clamped at −30 mV, bath perfusion of NMDA 25 μM for 1 minute induced an inward current of similar magnitude in control slices (115±15.5 pA) and in slices pre-treated with pregnenolone (100 nM: 107±9.6 pA; 1 μM: 108.9±12.5 pA; p=0.91) (FIG. 17 B).

[4] = test system: TNF-α; assay: Increase in plasma TNF-alpha induced by LPS; type: in vivo, mice; settings: pregnenolone 6 mg/kg sc 30 min before LPS; measured 90 min after LPS
[5] = target: CB1 receptor (Mus musculus, UniProt P47746); assay: Intravenous self-administration of the CB1 agonist WIN 55,212-2; type: in vivo, CD1 mice; set-up: tissue Charles River Laboratories (France) (animals); host or cells: living mice, whole animal
Chain of CB1 receptor (P47746 whole entry): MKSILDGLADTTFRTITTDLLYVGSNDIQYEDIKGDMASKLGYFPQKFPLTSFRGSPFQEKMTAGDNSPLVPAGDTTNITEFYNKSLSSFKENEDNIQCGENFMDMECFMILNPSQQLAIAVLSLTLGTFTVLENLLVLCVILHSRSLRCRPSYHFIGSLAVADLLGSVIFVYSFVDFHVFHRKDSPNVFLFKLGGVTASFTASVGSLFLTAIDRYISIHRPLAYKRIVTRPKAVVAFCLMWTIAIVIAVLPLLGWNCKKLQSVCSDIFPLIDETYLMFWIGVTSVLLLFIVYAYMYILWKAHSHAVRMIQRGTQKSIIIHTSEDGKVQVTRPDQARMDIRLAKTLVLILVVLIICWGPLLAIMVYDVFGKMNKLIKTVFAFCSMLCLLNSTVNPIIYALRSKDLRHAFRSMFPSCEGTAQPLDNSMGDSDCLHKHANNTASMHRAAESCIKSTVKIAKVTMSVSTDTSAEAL
Experimental: The intravenous self-administration experiments where the animals learned to self-infuse WIN 55, 212-2 (WIN) were conducted in mouse operant chambers (Model ENV-307A-CT, Medical Associates, Georgia, Vt., USA) using procedures previously described (Mendizabal V, et al., Neuropsychopharmacology. 2006, 31:1957-66).
In order to analyse the effects of pregnenolone administration on the positive reinforcing effect of CB1 activation that are related to the ability of THC to induce addiction, the inventors used the intravenous self-administration model performed in accordance to protocols previously described (Soria et al., 2006; Mendizabal et al., 2006). Intravenous self-administration is considered the best behavioural model of addiction. In this model animals learn to produce an operant response, in our case pocking the nose in a hole, in order to obtain an intravenous infusion of the drug. […] In this schedule animals are required to produce an increasing number of responses (ratio) to obtain one drug infusion, the break-point being the last ratio completed and is considered a reliable measure of the motivation for the drug. On PR session the response requirement to earn an injection escalated according to the following series: 1-2-3-5-12-18-27-40-60-90-135-200-300-450-675-1000.

[6] = pregnenolone 5 mg/kg, magnetic resonance

CC(=O)[C@H]1CC[C@H]2[C@@H]3CC=C4C[C@@H](O)CC[C@]4(C)[C@H]3CC[C@]12C [Pregnenolone, 5-Pregnen-3β-ol-20-one]
AMPAR-mediated mEPSC amplitude [1]: 15.7±0.7 pA
AMPAR-mediated mEPSC decay time [1]: 4.62 ± 0.06 ms
effect on food intake in DIO model ([2]; high fat diet, food intake over 24 hours): did not modify food intake
effect on body weight ([2]; high fat diet, once a day 2 or 5 mg/kg for thirty days, effect after 15 days): decreased body weight
effect on fat mass [2, 6]: the increase in fat mass was suppressed
effect on lean mass [2, 6]: the decrease in lean mass was blunted
inward current induced by NMDA 25 μM ([3]; slices pre-treated with 100 nM): 107±9.6 pA
inward current induced by NMDA 25 μM ([3]; slices pre-treated with 1 μM): 108.9±12.5 pA
effect on increase in TNF-alpha induced by LPS [4]: halved the increase in TNF-alpha
effect on motivation (break-point, progressive ratio schedule) ([5]; pregnenolone 2 or 4 mg/kg): decreased the motivation to self-administer WIN55,212
effect on self-administration of WIN55,212 ([5]; pregnenolone 2 or 4 mg/kg before the session, WIN 12.5 μg/kg per injection): profoundly reduced the self-administration of WIN55,212
